According to publication PMC7419507, “In vitro Cas9-assisted editing of modular polyketide synthase genes to produce desired natural product derivatives” (Nature Communications, 2020):
“And” between values parts separate entries of the source, which are not always exact repeats. Equal values may be shown once. “Also recorded” adds a separate entry of the source.

Tests used:
FKBP12 and mTOR = molecular target: T1, FKBP12 and mTOR (Homo sapiens, UniProt P42345+P62942); experiment: Fluoppi analysis: induction of FKBP12-mTOR complex formation in transfected HeLa cells; type: cell-based; settings: for Foci intensity: raw data, one replicate per line
T1 construct: host or cells: HeLa cells
T1 sequence (P42345 2025-2114 limits assumed): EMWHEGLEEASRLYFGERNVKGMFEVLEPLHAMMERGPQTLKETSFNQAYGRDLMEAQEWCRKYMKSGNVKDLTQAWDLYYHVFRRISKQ
T1 sequence (P62942 whole entry): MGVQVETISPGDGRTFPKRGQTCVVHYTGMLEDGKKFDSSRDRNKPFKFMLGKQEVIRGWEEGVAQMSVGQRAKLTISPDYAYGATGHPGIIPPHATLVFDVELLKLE
Summary of the method: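 HeLa cells co-transfected with phAG-mTOR and pAsh-FKBP12, seeded 3000 cells/well, then compound-treated 1 h after 24 h at 37 °C. Fixed, Hoechst-stained, imaged by high-content microscopy; foci fluorescence normalized to total cell fluorescence, EC50 computed.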

[1] = Cytotoxicity assay (CellTiter-Glo, 72 h), MESO-1; type: cell-based; settings: human, MESO-1 malignant pleural mesothelioma cells, raw replicate data, read-out: MESO1 viability (%)
Summary of the method: (§1)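 Luminescent ATP read-out (CellTiter-Glo) quantified surviving cells after a 72 h incubation with 2-fold diluted compounds in 0.5% DMSO, added 4 h post-seeding at 1000 cells/well.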

[2] = system: malignant pleural mesothelioma MESO-1 cells; experiment: Cytotoxicity assay (CellTiter-Glo, 72 h), MESO-1; type: cell-based; settings: raw replicate data
Summary of the method: as §1

[3] = Cytotoxicity assay (CellTiter-Glo, 72 h), SKOV-3; type: cell-based, human; settings: human, raw replicate data, read-out: SKOV3 viability (%)
Summary of the method: as §1

[4] = system: human ovarian adenocarcinoma SKOV-3 cells; experiment: Cytotoxicity assay (CellTiter-Glo, 72 h), SKOV-3; type: cell-based; settings: raw replicate data
Summary of the method: as §1

[5] = system: Jurkat, SKOV-3 and MESO-1 cells; experiment: Cytotoxicity assay, statements for all tested cell lines together; type: cell-based
Summary of the method: as §1

What does the source list for `COC1CC2CCC(C)C(O)(O2)C(=O)C(=O)N2CCCCC2C(=O)OC(C(C)CC2CCC(O)C(OC)C2)CC(=O)C(C)C=C(C)C(O)C(OC)C(=O)C(C)CC(C)C=CCCC=C1C` (stereo not drawn) [Compound 15, 19,20-dihidro-rapamycin]?
EC50 (FKBP12 and mTOR): 6.3 nM; PPI-inducing (binding enhancing) activity between FKBP12 and mTOR compared with rapamycin (1), in words (FKBP12 and mTOR; Fluoppi): as potent as rapamycin; also recorded: comparable level to that of rapamycin; Foci intensity (FKBP12 and mTOR; conc 9.53674e-5 uM): 0.01733 and 0.01067 and 0.005693; Foci intensity (FKBP12 and mTOR; conc 0.000190735 uM): 0.01213 and 0.0332 and 0.01291; Foci intensity (FKBP12 and mTOR; conc 0.00038147 uM): 0.02253 and 0.02952 and 0.01485; Foci intensity (FKBP12 and mTOR; conc 0.000762939 uM): 0.009661 and 0.01831 and 0.03236; Foci intensity (FKBP12 and mTOR; conc 0.00152588 uM): 0.02962 and 0.01659 and 0.0505; Foci intensity (FKBP12 and mTOR; conc 0.00305176 uM): 0.04113 and 0.07899 and 0.06427; Foci intensity (FKBP12 and mTOR; conc 0.00610352 uM): 0.1575 and 0.2102 and 0.171; Foci intensity (FKBP12 and mTOR; conc 0.012207 uM): 0.3436 and 0.3356 and 0.3668; Foci intensity (FKBP12 and mTOR; conc 0.0244141 uM): 0.3409 and 0.4046 and 0.3885; Foci intensity (FKBP12 and mTOR; conc 0.0488281 uM): 0.3546 and 0.3355 and 0.3935; Foci intensity (FKBP12 and mTOR; conc 0.0976562 uM): 0.3693 and 0.3135 and 0.3917; Foci intensity (FKBP12 and mTOR; conc 0.195312 uM): 0.3656 and 0.4341 and 0.3989; Foci intensity (FKBP12 and mTOR; conc 0.390625 uM): 0.405 and 0.3385 and 0.3714; Foci intensity (FKBP12 and mTOR; conc 0.78125 uM): 0.3465 and 0.4349 and 0.4007; Foci intensity (FKBP12 and mTOR; conc 1.5625 uM): 0.3165 and 0.3834 and 0.336; Foci intensity (FKBP12 and mTOR; conc 3.125 uM): 0.3857 and 0.3532 and 0.3973; Foci intensity (FKBP12 and mTOR; conc 6.25 uM): 0.3637 and 0.3694 and 0.3083; Foci intensity (FKBP12 and mTOR; conc 12.5 uM): 0.3396 and 0.3224 and 0.3917; Foci intensity (FKBP12 and mTOR; conc 25 uM): 0.3402 and 0.3226 and 0.4132; Foci intensity (FKBP12 and mTOR; conc 50 uM): 0.4382 and 0.3564 and 0.4638; viability at 72 h, 9.53674e-05 uM ([1]; conc 9.53674e-5 uM): 94.1%; viability at 72 h, 0.000190735 uM ([1]; conc 0.000190735 uM): 92%; viability at 72 h, 0.00038147 uM ([1]; conc 0.00038147 uM): 98.8%; viability at 72 h, 0.000762939 uM ([1]; conc 0.000762939 uM): 93.3%; viability at 72 h, 0.00152588 uM ([1]; conc 0.00152588 uM): 97.7%; viability at 72 h, 0.00305176 uM ([1]; conc 0.00305176 uM): 89.3%; viability at 72 h, 0.00610352 uM ([1]; conc 0.00610352 uM): 90.8%; viability at 72 h, 0.012207 uM ([1]; conc 0.012207 uM): 87.6%; viability at 72 h, 0.0244141 uM ([1]; conc 0.0244141 uM): 92.1%; viability at 72 h, 0.0488281 uM ([1]; conc 0.0488281 uM): 82.9%; viability at 72 h, 0.0976562 uM ([1]; conc 0.0976562 uM): 81.6%; viability at 72 h, 0.195312 uM ([1]; conc 0.195312 uM): 70.6%; viability at 72 h, 0.390625 uM ([1]; conc 0.390625 uM): 78.2%; viability at 72 h, 0.78125 uM ([1]; conc 0.78125 uM): 66.4%; viability at 72 h, 1.5625 uM ([1]; conc 1.5625 uM): 69.2%; viability at 72 h, 3.125 uM ([1]; conc 3.125 uM): 67.6%; viability at 72 h, 6.25 uM ([1]; conc 6.25 uM): 68.9%; viability at 72 h, 12.5 uM ([1]; conc 12.5 uM): 63.9%; viability at 72 h, 50 uM ([1]; conc 50 uM): 0.6%; MESO1 viability (%) ([2]; conc 9.53674e-5 uM): 97.4% and 107.3%; MESO1 viability (%) ([2]; conc 0.000190735 uM): 96.0% and 92.6%; MESO1 viability (%) ([2]; conc 0.00038147 uM): 101.5% and 100.0%; MESO1 viability (%) ([2]; conc 0.000762939 uM): 86.7% and 94.3%; MESO1 viability (%) ([2]; conc 0.00152588 uM): 92.8% and 93.2%; MESO1 viability (%) ([2]; conc 0.00305176 uM): 90.6%; MESO1 viability (%) ([2]; conc 0.00610352 uM): 91.6% and 97.1%; MESO1 viability (%) ([2]; conc 0.012207 uM): 80.5%; MESO1 viability (%) ([2]; conc 0.0244141 uM): 89.5% and 86.4%; MESO1 viability (%) ([2]; conc 0.0488281 uM): 83.3% and 88.8%; MESO1 viability (%) ([2]; conc 0.0976562 uM): 82.7% and 83.7%; MESO1 viability (%) ([2]; conc 0.195312 uM): 70.8% and 80.6%; MESO1 viability (%) ([2]; conc 0.390625 uM): 69.4% and 71.4%; MESO1 viability (%) ([2]; conc 0.78125 uM): 68.2% and 67.7%; MESO1 viability (%) ([2]; conc 1.5625 uM): 70.1% and 68.2%; MESO1 viability (%) ([2]; conc 3.125 uM): 66.5%; MESO1 viability (%) ([2]; conc 6.25 uM): 67.5% and 68.1%; MESO1 viability (%) ([2]; conc 12.5 uM): 65.8% and 62.8%; MESO1 viability (%) ([2]; conc 25 uM): 15.9% and 37.2% and 39.7%; MESO1 viability (%) ([2]; conc 50 uM): 0.367% and 0.476%; viability at 72 h, 9.53674e-05 uM ([3]; SKOV-3 cells (ovarian adenocarcinoma), conc 9.53674e-5 uM): 106%; viability at 72 h, 0.000190735 uM ([3]; SKOV-3 cells (ovarian adenocarcinoma), conc 0.000190735 uM): 101%; viability at 72 h, 0.00038147 uM ([3]; SKOV-3 cells (ovarian adenocarcinoma), conc 0.00038147 uM): 102%; viability at 72 h, 0.000762939 uM ([3]; SKOV-3 cells (ovarian adenocarcinoma), conc 0.000762939 uM): 102%; viability at 72 h, 0.00152588 uM ([3]; SKOV-3 cells (ovarian adenocarcinoma), conc 0.00152588 uM): 105%; viability at 72 h, 0.00305176 uM ([3]; SKOV-3 cells (ovarian adenocarcinoma), conc 0.00305176 uM): 108%; viability at 72 h, 0.00610352 uM ([3]; SKOV-3 cells (ovarian adenocarcinoma), conc 0.00610352 uM): 104%; viability at 72 h, 0.012207 uM ([3]; SKOV-3 cells (ovarian adenocarcinoma), conc 0.012207 uM): 106%; viability at 72 h, 0.0244141 uM ([3]; SKOV-3 cells (ovarian adenocarcinoma), conc 0.0244141 uM): 102%; viability at 72 h, 0.0488281 uM ([3]; SKOV-3 cells (ovarian adenocarcinoma), conc 0.0488281 uM): 95.2%; viability at 72 h, 0.0976562 uM ([3]; SKOV-3 cells (ovarian adenocarcinoma), conc 0.0976562 uM): 99.4%; viability at 72 h, 0.195312 uM ([3]; SKOV-3 cells (ovarian adenocarcinoma), conc 0.195312 uM): 91%; viability at 72 h, 0.390625 uM ([3]; SKOV-3 cells (ovarian adenocarcinoma), conc 0.390625 uM): 84.3%; viability at 72 h, 12.5 uM ([3]; SKOV-3 cells (ovarian adenocarcinoma), conc 12.5 uM): 63.5%; viability at 72 h, 25 uM ([3]; SKOV-3 cells (ovarian adenocarcinoma), conc 25 uM): 51.1%; viability at 72 h, 50 uM ([3]; SKOV-3 cells (ovarian adenocarcinoma), conc 50 uM): 4%; viability at 72 h, 0.78125 uM ([3]; SKOV-3 ovarian adenocarcinoma cells, conc 0.78125 uM): 77.1%; viability at 72 h, 1.5625 uM ([3]; SKOV-3 ovarian adenocarcinoma cells, conc 1.5625 uM): 85.7%; viability at 72 h, 3.125 uM ([3]; SKOV-3 ovarian adenocarcinoma cells, conc 3.125 uM): 72.5%; viability at 72 h, 6.25 uM ([3]; SKOV-3 ovarian adenocarcinoma cells, conc 6.25 uM): 65.8%; SKOV3 viability (%) ([4]; conc 9.53674e-5 uM): 104.4%; SKOV3 viability (%) ([4]; conc 0.000190735 uM): 106.7% and 103.7%; SKOV3 viability (%) ([4]; conc 0.00038147 uM): 104.3% and 105.3%; SKOV3 viability (%) ([4]; conc 0.000762939 uM): 104.7% and 102.3%; SKOV3 viability (%) ([4]; conc 0.00152588 uM): 105.8%; SKOV3 viability (%) ([4]; conc 0.00610352 uM): 104.8% and 103.3%; SKOV3 viability (%) ([4]; conc 0.012207 uM): 100.2% and 102.5%; SKOV3 viability (%) ([4]; conc 0.0244141 uM): 99.1% and 104.1%; SKOV3 viability (%) ([4]; conc 0.0488281 uM): 98.9% and 94.0%; SKOV3 viability (%) ([4]; conc 0.0976562 uM): 97.9% and 101.5%; SKOV3 viability (%) ([4]; conc 0.195312 uM): 91.8% and 87.6%; SKOV3 viability (%) ([4]; conc 0.390625 uM): 93.7% and 87.4%; SKOV3 viability (%) ([4]; conc 0.78125 uM): 82.2% and 82.5%; SKOV3 viability (%) ([4]; conc 1.5625 uM): 81.5% and 77.5%; SKOV3 viability (%) ([4]; conc 3.125 uM): 73.9% and 77.4%; SKOV3 viability (%) ([4]; conc 6.25 uM): 68.2% and 74.1%; SKOV3 viability (%) ([4]; conc 12.5 uM): 67.0% and 61.2%; SKOV3 viability (%) ([4]; conc 25 uM): 54.3% and 53.4%; SKOV3 viability (%) ([4]; conc 50 uM): 3.9% and 4.5%; Effect on cell viability, in words ([5]; Jurkat, SKOV-3 and MESO-1 cells, 72 h): slightly suppressed the cell viabilities; Cytostatic effect, fold lower than that of 1 ([5]; relative to rapamycin (1)): ~ 100 fold
